For data set [1] the following is noted: after administration; cited from earlier work.
Data set [2] deals with HeLa 654 cells (EGFP gene interrupted by a mutated intron of ß-globin, IVS2-654). The experiment in a line: EGFP 654 assay (corrective splicing by PMO IVS2-654, flow cytometry). The note with it: PMO-CPP conjugates, 22 h, read-out: EC50 in concentration-response EGFP assay. The format is cell-based. As to the method: Purified constructs were then tested using an activity-based readout in which nuclear delivery results in fluorescence. Briefly, HeLa cells stably transfected with an Enhanced Green Fluorescent Protein (EGFP) gene interrupted by a mutated intron of ß-globin (IVS2-654) produce a non-fluorescent EGFP protein. Successful delivery of PMO IVS2-654 to the nucleus results in corrective splicing and EGFP synthesis.
The amount of PMO delivered to the nucleus is therefore correlated with EGFP fluorescence, quantified by flow cytometry. Activity is reported as mean fluorescence intensity (MFI) relative to PMO alone. This activity assay provides indirect information on how much active PMO is delivered to the nucleus. Relative efficiency of a PMO-CPP could be characterized by comparing activity to internal concentration, as discussed later (FIG. 2). […]
For individual peptide testing, PMO-peptides were dissolved in PBS without Ca2+ or Mg2+ at a concentration of 1 mM (determined by UV) before being diluted in MEM. […] Gates were applied to the data to ensure that cells that were positive for propidium iodide or had forward/side scatter readings that were sufficiently different from the main cell population were excluded. […]
Analysis was conducted using Graphpad Prism 7 and FlowJo. For each sample, the mean fluorescence intensity (MFI) and the number of gated cells was measured. […]
On the technique in general: Flow cytometry measures light scatter and fluorescence of single cells or particles in a stream.

These results are taken from US20250011777A1, “DELIVERY OF ANITSENSE OLIGOMERS BY MIRROR IMAGE PEPTIDES” (SAREPTA THERAPEUTICS, INC., priority 2021, published 2025).

A value given as a limit tells only on which side of the number the result lay.

On to Eteplirsen, for which the “time within which the majority of the drug is cleared renally” value in data set [1] is listed as at most 24 h.
In the case of RXRRBRRXRRBR [BPEP], in data set [2], the EC50 is about 3000 nM.
